Test results: publication PMC6384738, “Structure-Function Studies of Polymyxin B Lipononapeptides” (Molecules, 2019)
Values after ≈ are worked out from the molar mass of the structure shown. Where a SMILES comes first, the peptide text is derived from it. Bridges are numbered along the chain shown (N, C = ends). [ ]: non-standard residue; d: D form. The star is where a group is joined. Benzoyl(3-Ph) = O=C(c1cccc(-c2ccccc2)c1)*; Butanoyl(4-OPh) = O=C(CCCOc1ccccc1)*; X2 = CCCCCOc1cccc(C(=O)*)c1; Octanoyl = CCCCCCCC(=O)*; Dab = NCC[C@H](N)C(=O)O

Legend:
K. pneumoniae ATCC 13833 = experiment: microbe, parasite or virus in culture; conditions: ATCC 13833, 18 h
Description: (§1) All compounds synthesised in this study were assessed for their minimum inhibitory concentrations (MIC, mg/L) by broth microdilution assay against five antibiotic-sensitive and resistant ATCC reference strains covering the Gram-negative ESKAPE pathogens (Escherichia coli, Klebsiella pneumoniae, A. baumannii, and P. aeruginosa) (Table 1, Table 2 and Table 3). Staphylococcus aureus was also included as a representative Gram-positive bacterial strain. […] Polymyxin B 1, colistin 2, vancomycin and gentamicin were used as positive inhibitor comparator compounds. Compounds were counter-screened against human proximal tubular epithelial cells (HK-2), using LDH release as a general indicator of cellular toxicity.

A. baumannii ATCC 19606 = experiment: microbe, parasite or virus in culture; conditions: ATCC 19606, 18 h
Description: as §1

[1] = test system: K. pneumoniae ATCC 700603; experiment: microbe, parasite or virus in culture; conditions: ATCC 700603, 18 h
Description: as §1

P. aeruginosa ATTC 27853 = experiment: microbe, parasite or virus in culture; conditions: ATTC 27853, 18 h
Description: as §1

E. coli ATCC 25922 = experiment: microbe, parasite or virus in culture; conditions: ATCC 25922, 18 h
Description: as §1

S. aureus ATCC 25923 = experiment: microbe, parasite or virus in culture; conditions: ATCC 25923, 18 h
Description: as §1

K. pneumoniae BAA 2146 = experiment: microbe, parasite or virus in culture; conditions: BAA 2146, 18 h
Description: as §1

in vitro = conditions: human
Description: as §1
Cytotoxicity to human kidney proximal tubular epithelial cell line, HK-2 (ATCC CRL-2190, sourced from ATCC; Manassas, VA, USA) was determined using the LDH assay as previously described. In brief, HK-2 cells were seeded as 2000 cells/well in black-walled clear bottom 384-well tissue culture treated plates (Corning, catalogue No. 3712) in DMEM/F12 medium (Gibco® 10565-042) containing 10% of Fetal Bovine Serum (FBS, Gibco® 10099-141) and incubated for 24 h at 37 °C, 5% CO2. Compounds were then added into each well with a concentration series from 300 µM to 2.3 µM in 2-fold dilutions. Colistin and polymyxin B were used as controls and tested at a final concentration range of 1 mM to 7.8 µM. The cells were incubated with the compounds for 24 h at 37 °C, 5% CO2. After the incubation, 5 µL of culture medium was added to 45 µL of LDH assay buffer (Biovision, K313-500) and incubated for 30 min at room temperature. The absorbance (ABS) was then read at 450 nm using a Polar Star Omega plate reader. The data was analysed by Prism 6 software (GraphPad Software, La Jolla, CA, USA). Results were calculated using the following equation: cytotoxicity %= (ABSsamples − ABSuntreated/ABS1%Triton X-100 − ABSuntreated) × 100.

Structure (SMILES): CCCCCCCC(=O)N[C@H](C(=O)N[C@H](Cc1c[nH]cn1)C(=O)N[C@H]1CCNC(=O)[C@H]([C@@H](C)O)NC(=O)[C@H](CCN)NC(=O)[C@H](CCN)NC(=O)[C@H](CC(C)C)NC(=O)[C@@H](Cc2ccccc2)NC(=O)[C@H](CCN)NC1=O)[C@@H](C)O [Compound 48] (Octanoyl-T[dH][Dab][Dab][dF]L[Dab][Dab]T; lactam 3-C)
- MIC K. pneumoniae ATCC 13833 (K. pneumoniae ATCC 13833): 4 µg/mL (≈ 3.55 µM)
- MIC A. baumannii ATCC 19606 (A. baumannii ATCC 19606): 4 µg/mL (≈ 3.55 µM)
- MIC K. pneumoniae ATCC 700603 [1]: 4 µg/mL (≈ 3.55 µM)
- MIC P. aeruginosa ATTC 27853 (P. aeruginosa ATTC 27853): 16 µg/mL (≈ 14.2 µM)
- MIC E. coli ATCC 25922 (E. coli ATCC 25922): 2 µg/mL (≈ 1.78 µM)
- MIC S. aureus ATCC 25923 (S. aureus ATCC 25923): >32 µg/mL
- MIC K. pneumoniae BAA 2146 (K. pneumoniae BAA 2146): 4 µg/mL (≈ 3.55 µM)
- CC50 at 24 h (in vitro): > 300 µM

Structure (SMILES): CCCCCOc1cccc(C(=O)N[C@H](C(=O)N[C@@H](CCN)C(=O)N[C@H]2CCNC(=O)[C@H]([C@@H](C)O)NC(=O)[C@H](CCN)NC(=O)[C@H](CCN)NC(=O)[C@H](CC(C)C)NC(=O)[C@@H](Cc3ccccc3)NC(=O)[C@H](CCN)NC2=O)[C@@H](C)O)c1 [Compound 11] (X2-T[Dab][Dab][Dab][dF]L[Dab][Dab]T; lactam 3-C)
- MIC K. pneumoniae ATCC 13833 (K. pneumoniae ATCC 13833): >32 µg/mL
- MIC A. baumannii ATCC 19606 (A. baumannii ATCC 19606): >32 µg/mL
- MIC K. pneumoniae ATCC 700603 [1]: 32 µg/mL (≈ 27.7 µM)
- MIC P. aeruginosa ATTC 27853 (P. aeruginosa ATTC 27853): 2 µg/mL (≈ 1.73 µM)
- MIC E. coli ATCC 25922 (E. coli ATCC 25922): 8 µg/mL (≈ 6.94 µM)
- MIC S. aureus ATCC 25923 (S. aureus ATCC 25923): >32 µg/mL
- MIC K. pneumoniae BAA 2146 (K. pneumoniae BAA 2146): 8 µg/mL (≈ 6.94 µM)
- CC50 at 24 h (in vitro): 93 µM

Structure (SMILES): CC(C)C[C@@H]1NC(=O)[C@@H](Cc2ccccc2)NC(=O)[C@H](CCN)NC(=O)[C@@H](NC(=O)CNC(=O)[C@@H](NC(=O)CCCOc2ccccc2)[C@@H](C)O)CCNC(=O)[C@H]([C@@H](C)O)NC(=O)[C@H](CCN)NC(=O)[C@H](CCN)NC1=O [Compound 51] ({Butanoyl(4-OPh)}-TG[Dab][Dab][dF]L[Dab][Dab]T; lactam 3-C)
- MIC K. pneumoniae ATCC 13833 (K. pneumoniae ATCC 13833): >32 µg/mL
- MIC A. baumannii ATCC 19606 (A. baumannii ATCC 19606): 16 µg/mL (≈ 14.8 µM)
- MIC K. pneumoniae ATCC 700603 [1]: 16 µg/mL (≈ 14.8 µM)
- MIC P. aeruginosa ATTC 27853 (P. aeruginosa ATTC 27853): 8 µg/mL (≈ 7.39 µM)
- MIC E. coli ATCC 25922 (E. coli ATCC 25922): 2 µg/mL (≈ 1.85 µM)
- MIC S. aureus ATCC 25923 (S. aureus ATCC 25923): >32 µg/mL
- MIC K. pneumoniae BAA 2146 (K. pneumoniae BAA 2146): 4 µg/mL (≈ 3.7 µM)
- CC50 at 24 h (in vitro): > 300 µM

Structure (SMILES): CCCCCCCC(=O)N[C@H](C(=O)N[C@@H](CC(N)=O)C(=O)N[C@H]1CCNC(=O)[C@H]([C@@H](C)O)NC(=O)[C@H](CCN)NC(=O)[C@H](CCN)NC(=O)[C@H](CC(C)C)NC(=O)[C@@H](Cc2ccccc2)NC(=O)[C@H](CCN)NC1=O)[C@@H](C)O [Compound 38] (Octanoyl-TN[Dab][Dab][dF]L[Dab][Dab]T; lactam 3-C)
- MIC K. pneumoniae ATCC 13833 (K. pneumoniae ATCC 13833): >32 µg/mL
- MIC A. baumannii ATCC 19606 (A. baumannii ATCC 19606): >32 µg/mL
- MIC K. pneumoniae ATCC 700603 [1]: >32 µg/mL
- MIC P. aeruginosa ATTC 27853 (P. aeruginosa ATTC 27853): >32 µg/mL
- MIC E. coli ATCC 25922 (E. coli ATCC 25922): 32 µg/mL (≈ 29 µM)
- MIC S. aureus ATCC 25923 (S. aureus ATCC 25923): >32 µg/mL
- MIC K. pneumoniae BAA 2146 (K. pneumoniae BAA 2146): >32 µg/mL
- CC50 at 24 h (in vitro): 284 µM

Structure (SMILES): CC(C)C[C@@H]1NC(=O)[C@@H](Cc2ccccc2)NC(=O)[C@H](CCN)NC(=O)[C@@H](NC(=O)[C@H](CCN)NC(=O)[C@@H](NC(=O)c2cccc(-c3ccccc3)c2)[C@@H](C)O)CCNC(=O)[C@H]([C@@H](C)O)NC(=O)[C@H](CCN)NC(=O)[C@H](CCN)NC1=O [Compound 14] ({Benzoyl(3-Ph)}-T[Dab][Dab][Dab][dF]L[Dab][Dab]T; lactam 3-C)
- MIC K. pneumoniae ATCC 13833 (K. pneumoniae ATCC 13833): >32 µg/mL
- MIC A. baumannii ATCC 19606 (A. baumannii ATCC 19606): >32 µg/mL
- MIC K. pneumoniae ATCC 700603 [1]: 32 µg/mL (≈ 28 µM)
- MIC P. aeruginosa ATTC 27853 (P. aeruginosa ATTC 27853): 2 µg/mL (≈ 1.75 µM)
- MIC E. coli ATCC 25922 (E. coli ATCC 25922): 8 µg/mL (≈ 7 µM)
- MIC S. aureus ATCC 25923 (S. aureus ATCC 25923): >32 µg/mL
- MIC K. pneumoniae BAA 2146 (K. pneumoniae BAA 2146): 16 µg/mL (≈ 14 µM)
- CC50 at 24 h (in vitro): 182 µM

Structure (SMILES): CCCCCCCC(=O)N[C@H](C(=O)N[C@H](CCCCN)C(=O)N[C@H]1CCNC(=O)[C@H]([C@@H](C)O)NC(=O)[C@H](CCN)NC(=O)[C@H](CCN)NC(=O)[C@H](CC(C)C)NC(=O)[C@@H](Cc2ccccc2)NC(=O)[C@H](CCN)NC1=O)[C@@H](C)O [Compound 43] (Octanoyl-T[dK][Dab][Dab][dF]L[Dab][Dab]T; lactam 3-C)
- MIC K. pneumoniae ATCC 13833 (K. pneumoniae ATCC 13833): >32 µg/mL
- MIC A. baumannii ATCC 19606 (A. baumannii ATCC 19606): 16 µg/mL (≈ 14.3 µM)
- MIC K. pneumoniae ATCC 700603 [1]: 4 µg/mL (≈ 3.58 µM)
- MIC P. aeruginosa ATTC 27853 (P. aeruginosa ATTC 27853): 4 µg/mL (≈ 3.58 µM)
- MIC E. coli ATCC 25922 (E. coli ATCC 25922): 1 µg/mL (≈ 0.895 µM)
- MIC S. aureus ATCC 25923 (S. aureus ATCC 25923): >32 µg/mL
- MIC K. pneumoniae BAA 2146 (K. pneumoniae BAA 2146): 4 µg/mL (≈ 3.58 µM)
- CC50 at 24 h (in vitro): > 300 µM
